We go through five compounds from article PMC3049939 (Chemical science (Royal Society of Chemistry : 2010), 2011).

For this test, the system named is porcine liver esterase (PLE). Briefly: fluorogenic hydrolysis, Michaelis-Menten fit. In kind it is biochemical, Sus scrofa. The note with it: HEPES pH 7.4, 23 ± 2 °C, DMSO up to 1.5% v/v.

Take `CC(=O)Oc1ccc2c(c1)Oc1cc(OC(C)=O)ccc1C21OC(=O)c2ccccc21` [2a, fluorescein diacetate]: the Michaelis-Menten constant (Km) (in general, the substrate concentration at which the rate is half of its maximum) (two ester groups per molecule) was 11 µM. For the compound `CC(=O)OCOc1ccc2nc3ccc(=O)cc-3oc2c1` [compound 9, Resorufin acetoxymethyl ether], the Km came to 21 µM.

In the case of `CC(=O)Oc1ccc2nc3ccc(=O)cc-3oc2c1` [compound 10, resorufin acetate], the Michaelis-Menten constant (Km) worked out at 16 µM. On to Tokyo Green acetate [compound 7], for which the Km worked out at 12 µM. Take “Tokyo green acetoxymethyl ether [compound 6]”: the Km is 13 µM.
